IC50 data for 24 compounds are collected here from US11034685B2, “Aminopyridine derivatives as TAM family kinase inhibitors” (SignalChem Lifesciences Corporation, priority 2013, dated 2021).

Holding throughout (type): biochemical
Assay [1] addresses T1, human Mer (578-872) (Homo sapiens, UniProt Q12866).
T1 construct: GST (N); made in house; host or cells: Sf9 insect cells (baculovirus)
T1 sequence (Q12866 578-872): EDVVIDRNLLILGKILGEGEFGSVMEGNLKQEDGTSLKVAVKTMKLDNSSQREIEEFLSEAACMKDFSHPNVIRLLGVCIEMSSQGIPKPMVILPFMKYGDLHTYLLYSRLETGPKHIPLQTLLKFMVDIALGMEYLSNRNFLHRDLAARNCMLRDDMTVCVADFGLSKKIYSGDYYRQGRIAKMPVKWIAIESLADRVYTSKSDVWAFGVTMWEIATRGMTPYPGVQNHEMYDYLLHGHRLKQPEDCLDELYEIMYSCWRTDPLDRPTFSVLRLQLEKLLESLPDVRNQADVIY
Description: Kinase enzymatic activity assay ([33P]-ATP phosphate transfer), Mer. Particulars: inhibitory activity on Mer; class symbols. The gist of the method:
(§1)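 Kinases were N-terminal GST-tagged constructs expressed in Sf9 cells, with poly(Glu:Tyr 4:1) as substrate. Reactions ran in MOPS buffer pH 7.2 with MgCl2 and [33P]-ATP (250 μM cocktail stock) for 30 min at room temperature. Filter-bound radioactivity gave % inhibition, and IC50 was taken from serial dilutions.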

For assay [2], the target named is T2, Recombinant human Tyro3 (455-end) (Homo sapiens, UniProt Q06418).
T2 construct: GST (N); made in house; host or cells: Sf9 insect cells (baculovirus)
T2 sequence (Q06418 455-890 limits assumed): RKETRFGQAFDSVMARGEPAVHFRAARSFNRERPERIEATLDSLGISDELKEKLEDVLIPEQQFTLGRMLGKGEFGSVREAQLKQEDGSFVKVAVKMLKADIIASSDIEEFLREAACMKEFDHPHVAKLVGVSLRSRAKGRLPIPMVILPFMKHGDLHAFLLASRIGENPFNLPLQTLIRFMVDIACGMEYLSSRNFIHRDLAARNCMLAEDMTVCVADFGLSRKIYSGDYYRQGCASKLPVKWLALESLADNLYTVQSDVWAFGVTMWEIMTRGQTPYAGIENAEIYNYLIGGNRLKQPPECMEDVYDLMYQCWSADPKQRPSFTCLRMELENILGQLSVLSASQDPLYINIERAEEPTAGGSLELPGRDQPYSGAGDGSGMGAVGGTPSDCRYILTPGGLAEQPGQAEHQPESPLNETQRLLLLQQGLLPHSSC
Description: Kinase enzymatic activity assay ([33P]-ATP phosphate transfer), Tyro3. Particulars: inhibitory activity on Tyro3; class symbols. The gist of the method:
as §1

The target of assay [3] is T3, human Axl (473-end) (Homo sapiens, UniProt P30530).
T3 construct: GST (N); made in house; host or cells: Sf9 insect cells (baculovirus)
T3 sequence (P30530 473-894 limits assumed): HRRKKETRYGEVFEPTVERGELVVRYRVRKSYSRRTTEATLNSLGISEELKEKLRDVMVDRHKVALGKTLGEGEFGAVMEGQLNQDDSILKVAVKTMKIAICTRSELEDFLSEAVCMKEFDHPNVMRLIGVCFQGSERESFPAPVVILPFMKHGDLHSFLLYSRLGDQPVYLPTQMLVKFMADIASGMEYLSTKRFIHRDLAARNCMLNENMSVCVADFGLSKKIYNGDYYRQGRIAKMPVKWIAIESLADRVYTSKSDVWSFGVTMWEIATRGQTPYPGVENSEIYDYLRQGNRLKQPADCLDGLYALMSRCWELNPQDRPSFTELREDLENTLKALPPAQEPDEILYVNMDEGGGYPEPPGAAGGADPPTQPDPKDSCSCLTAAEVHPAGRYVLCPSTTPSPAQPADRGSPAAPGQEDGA
Nature of the assay: Kinase enzymatic activity assay ([33P]-ATP phosphate transfer), Axl. Particulars: inhibitory activity on Axl; class symbols. In outline: as §1

Regarding `Nc1ncc(-c2cnn(C3CCOCC3)c2)cc1-c1noc(-c2ccccc2)n1` [3-(5-phenyl-1,2,4-oxadiazol-3-yl)-5-(1-(tetrahydro-2H-pyran-4-yl)-1H-pyrazol-4-yl)pyridin-2-amine], the values for the IC50 in assay [1], in assay [2] and in assay [3] were 1000 to 10000 nM, 500 to 1000 nM and less than 500 nM, respectively.

Take `Nc1ncc(-c2cn[nH]c2)cc1-c1noc(-c2ccccc2)n1` [3-(5-phenyl-1,2,4-oxadiazol-3-yl)-5-(1H-pyrazol-4-yl)pyridin-2-amine]: the figures for the IC50 in assay [1], in assay [2] and in assay [3] were 1000 to 10000 nM, less than 500 nM and less than 500 nM, respectively.

With `Nc1ncc(-c2cnn(C3CCNCC3)c2)cc1-c1nnc(-c2ccccc2)o1` [3-(5-phenyl-1,3,4-oxadiazol-2-yl)-5-(1-(piperidin-4-yl)-1H-pyrazol-4-yl)pyridin-2-amine], the IC50 in assay [1], in assay [2] and in assay [3] was less than 500 nM throughout.

Regarding `Nc1ncc(-c2cnn(C3CCOCC3)c2)cc1-c1nnc(-c2ccccc2)o1` [3-(5-phenyl-1,3,4-oxadiazol-2-yl)-5-(1-(tetrahydro-2H-pyran-4-yl)-1H-pyrazol-4-yl)pyridin-2-amine], the IC50 in assay [1], in assay [2] and in assay [3] was less than 500 nM in each case.

In the case of `Nc1ncc(-c2cn[nH]c2)cc1-c1nnc(-c2ccccc2)o1` [3-(5-phenyl-1,3,4-oxadiazol-2-yl)-5-(1H-pyrazol-4-yl)pyridin-2-amine], the IC50 in assay [1] was 500 to 1000 nM; in assay [2], less than 500 nM; in assay [3] it was less than 500 nM.

Regarding `Nc1ncc(-c2cnn(C3CCNCC3)c2)cc1-c1ccc(-c2ccccc2)o1` [3-(5-phenylfuran-2-yl)-5-(1-(piperidin-4-yl)-1H-pyrazol-4-yl)pyridin-2-amine], the IC50 is 500 to 1000 nM in assay [1], less than 500 nM in assay [2] and less than 500 nM in assay [3].

Consider `Nc1ncc(-c2cnn(C3CCOCC3)c2)cc1-c1ccc(-c2ccccc2)o1` [3-(5-phenylfuran-2-yl)-5-(1-(tetrahydro-2H-pyran-4-yl)-1H-pyrazol-4-yl)pyridin-2-amine], for which the IC50 in assay [1], in assay [2] and in assay [3] was 1000 to 10000 nM each time.

Regarding `Nc1ncc(-c2cnn(C3CCNCC3)c2)cc1-c1cc(-c2ccccc2)on1` [3-(5-phenylisoxazol-3-yl)-5-(1-(piperidin-4-yl)-1H-pyrazol-4-yl)pyridin-2-amine], the IC50 in assay [1], in assay [2] and in assay [3] was less than 500 nM each time.

For the compound `Nc1ncc(-c2cnn(C3CCOCC3)c2)cc1-c1cc(-c2ccccc2)on1` [3-(5-phenylisoxazol-3-yl)-5-(1-(tetrahydro-2H-pyran-4-yl)-1H-pyrazol-4-yl)pyridin-2-amine], the IC50 in assay [1] was 1000 to 10000 nM; in assay [2], less than 500 nM; in assay [3], less than 500 nM.

As to `Nc1ncc(-c2cnn(C3CCNCC3)c2)cc1-c1ncc(-c2ccccc2)o1` [3-(5-phenyloxazol-2-yl)-5-(1-(piperidin-4-yl)-1H-pyrazol-4-yl)pyridin-2-amine], the IC50 in assay [1], in assay [2] and in assay [3] was less than 500 nM each time.

Turning to `Nc1ncc(-c2cnn(C3CCOCC3)c2)cc1-c1ncc(-c2ccccc2)o1` [3-(5-phenyloxazol-2-yl)-5-(1-(tetrahydro-2H-pyran-4-yl)-1H-pyrazol-4-yl)pyridin-2-amine], the IC50 in assay [1] was greater than 10000 nM; in assay [2], less than 500 nM; in assay [3], less than 500 nM.

With `CCN1CCC(n2cc(-c3cnc(N)c(-c4nc(-c5ccccc5)no4)c3)cn2)CC1` [5-(1-(1-ethylpiperidin-4-yl)-1H-pyrazol-4-yl)-3-(3-phenyl-1,2,4-oxadiazol-5-yl)pyridin-2-amine], the IC50 in assay [1], in assay [2] and in assay [3] was less than 500 nM in each case.

With `CCN1CCC(n2cc(-c3cnc(N)c(-c4ncc(-c5ccccc5)o4)c3)cn2)CC1` [5-(1-(1-ethylpiperidin-4-yl)-1H-pyrazol-4-yl)-3-(5-phenyloxazol-2-yl)pyridin-2-amine], the IC50 in assay [1], in assay [2] and in assay [3] was less than 500 nM in each case.

`CN1CCC(n2cc(-c3cnc(N)c(-c4nc(-c5ccccc5)no4)c3)cn2)CC1` [5-(1-(1-methylpiperidin-4-yl)-1H-pyrazol-4-yl)-3-(3-phenyl-1,2,4-oxadiazol-5-yl)pyridin-2-amine]: the half-maximal inhibitory concentration (IC50) in assay [1], in assay [2] and in assay [3] was less than 500 nM throughout.

Consider `CN1CCC(n2cc(-c3cnc(N)c(-c4noc(-c5ccccc5)n4)c3)cn2)CC1` [5-(1-(1-methylpiperidin-4-yl)-1H-pyrazol-4-yl)-3-(5-phenyl-1,2,4-oxadiazol-3-yl)pyridin-2-amine], for which the IC50 in assay [1] is 500 to 1000 nM; in assay [2], less than 500 nM; in assay [3], less than 500 nM.

Take `CN1CCC(n2cc(-c3cnc(N)c(-c4cc(-c5ccccc5)on4)c3)cn2)CC1` [5-(1-(1-methylpiperidin-4-yl)-1H-pyrazol-4-yl)-3-(5-phenylisoxazol-3-yl)pyridin-2-amine]: the IC50 in assay [1], in assay [2] and in assay [3] was less than 500 nM each time.

In the case of `Nc1ncc(-c2cnn(C3CCNCC3)c2)cc1-c1nnc(-c2nc(C(F)(F)F)cs2)o1` [5-(1-(piperidin-4-yl)-1H-pyrazol-4-yl)-3-(5-(4-(trifluoromethyl)thiazol-2-yl)-1,3,4-oxadiazol-2-yl)pyridin-2-amine], the IC50 in assay [1], in assay [2] and in assay [3] was less than 500 nM throughout.

For `Nc1ncc(-c2cnn(C3CCNCC3)c2)cc1-c1nnc(-c2cnccn2)o1` [5-(1-(piperidin-4-yl)-1H-pyrazol-4-yl)-3-(5-(pyrazin-2-yl)-1,3,4-oxadiazol-2-yl)pyridin-2-amine], the IC50 was 500 to 1000 nM in assay [1], less than 500 nM in assay [2] and less than 500 nM in assay [3].

In the case of `Nc1ncc(-c2cnn(C3CCNCC3)c2)cc1-c1nnc(-c2ccccn2)o1` [5-(1-(piperidin-4-yl)-1H-pyrazol-4-yl)-3-(5-(pyridin-2-yl)-1,3,4-oxadiazol-2-yl)pyridin-2-amine], the 50% inhibitory concentration (IC50) in assay [1], in assay [2] and in assay [3] was less than 500 nM throughout.

Regarding `Nc1ncc(-c2cnn(C3CCNCC3)c2)cc1-c1nnc(-c2cccnc2)o1` [5-(1-(piperidin-4-yl)-1H-pyrazol-4-yl)-3-(5-(pyridin-3-yl)-1,3,4-oxadiazol-2-yl)pyridin-2-amine], the IC50 in assay [1], in assay [2] and in assay [3] was less than 500 nM each time.

As for `Nc1ncc(-c2cnn(C3CCNCC3)c2)cc1-c1ncc(-c2cccnc2)o1` [5-(1-(piperidin-4-yl)-1H-pyrazol-4-yl)-3-(5-(pyridin-3-yl)oxazol-2-yl)pyridin-2-amine], the IC50 in assay [1], in assay [2] and in assay [3] was less than 500 nM each time.

As for `Nc1ncc(-c2cnn(C3CCNCC3)c2)cc1-c1nnc(-c2nccs2)o1` [5-(1-(piperidin-4-yl)-1H-pyrazol-4-yl)-3-(5-(thiazol-2-yl)-1,3,4-oxadiazol-2-yl)pyridin-2-amine], the IC50 in assay [1], in assay [2] and in assay [3] was less than 500 nM in each case.

Consider `Nc1ncc(-c2cnn(C3CCCCC3)c2)cc1-c1nc(-c2c(Cl)cccc2Cl)no1` [5-(1-cyclohexyl-1H-pyrazol-4-yl)-3-(3-(2,6-dichlorophenyl)-1,2,4-oxadiazol-5-yl)pyridin-2-amine], for which the values for the IC50 in assay [1], in assay [2] and in assay [3] were 1000 to 10000 nM, less than 500 nM and 1000 to 10000 nM, respectively.

Take `Nc1ncc(-c2cnn(C3CCCCC3)c2)cc1-c1nc(-c2ccccc2)no1` [5-(1-cyclohexyl-1H-pyrazol-4-yl)-3-(3-phenyl-1,2,4-oxadiazol-5-yl)pyridin-2-amine]: the IC50 in assay [1] was greater than 10000 nM; in assay [2], 1000 to 10000 nM; in assay [3], 1000 to 10000 nM.

As usually defined, the IC50 is the midpoint of a concentration-inhibition curve.
